From US20110251286A1, “Crystalline salts and/or co-crystals of O-desmethyltramadol” (GRUENENTHAL GmbH, priority 2010, published 2011)

Columns and labels:
[1] = Release in artificial intestinal juice; type: physicochemical; details: for Release in artificial intestinal juice, percent of the substance released: permeable bag, amount calculated on 100 mg free base; for release rate compared to the hydrochloride salt: in artificial intestinal juice
Method: Investigations on release were carried out in a Sotax AT7 smart release apparatus with UV measurement (Perkin Elmer photometer).
A vessel with Wood apparatus was used (for intrinsic release).
A pressing of 0.5 cm^2 surface area (diameter 8 mm) was produced with a force of 200 N using approximately 100 mg of active ingredient.
Release was carried out in a release medium, which is composed as described below: • Intestinal juice without pancreas powder, pH 6.8 (analogous to Ph. Eur.); 250.0 ml 6.8 g of potassium dihydrogenphosphate R+0.896 g of NaOH+water to 1000.0 ml.
Release was carried out in a release volume of in each case 500±5 ml at a temperature of the release medium of 37±1° C. with a stirring speed of 100±5 rpm.
The content determination was carried out by means of spectroscopic methods (UV spectroscopy, wavelength: 271 nm, cuvette: 10 mm). Sample taking was carried out manually.
In this release experiment, the individual compounds were placed in a permeable bag in an amount in each case calculated on 100 mg of the free base.
The results, expressed in percent of the substance released, are reproduced in the following tables. In this case, the compounds denote: HCl: hydrochloride; A: cinnamate; B: palmitate; C: decanoate; E: hemi-fumarate and F: hemi-sebacate.

[2] = Dynamic vapor sorption (DVS): sorption and desorption of moisture; type: physicochemical
Method: Investigations on the sorption and desorption of moisture (dynamic vapor sorption, DVS): DVS measurements were carried out on an apparatus of the type DVS 1000 from Porotec. The evaluation of the measurements was carried out using software from Surface Measurement Systems. At a temperature between 23° C. and 26° C., starting from a relative humidity of 50%, within 240 minutes the relative humidity first increased to 90% and then fell to 0%. This cycle was repeated a second time. The DVS charts shown are isothermal recordings (plots) of the change in the mass in % (change in mass—dry) as a function of the desired relative humidity in % (target RH). Correspondingly, the axes of the graphs are marked by ΔM [%] and RH [%]. The measurement curves of the first sorption are designated by 1-S, the subsequent first desorption by 1-D, the second sorption by 2-S and the second desorption by 2-D. Advantageously, mass changes between the sorption and desorption phase are as low as possible.

Compound: CN(C)C[C@H]1CCCC[C@]1(O)c1cccc(O)c1.Cl [HCl-2]
- Release in artificial intestinal juice, percent of the substance released ([1]; t 2 min): 97.72%
- Release in artificial intestinal juice, percent of the substance released ([1]; t 4 min): 98.52%
- Release in artificial intestinal juice, percent of the substance released ([1]; t 6 min): 100.41%
- Release in artificial intestinal juice, percent of the substance released ([1]; t 8 min): 98.83%
- Release in artificial intestinal juice, percent of the substance released ([1]; t 10 min): 100.29%
- Release in artificial intestinal juice, percent of the substance released ([1]; t 12 min): 98.70%
- Release in artificial intestinal juice, percent of the substance released ([1]; t 15 min): 100.05%
- Release in artificial intestinal juice, percent of the substance released ([1]; t 30 min): 99.96%

Compound: O=C(O)/C=C/c1ccccc1 [cinnamate]
- release rate compared to the hydrochloride salt [1]: decreased release rates compared to the hydrochloride salt
- ΔM Desorption ([2]; 1st cycle, RH 0.0 %): 0.0012%
- ΔM Desorption ([2]; 1st cycle, RH 10.0 %): 0.0432%
- ΔM Desorption ([2]; 1st cycle, RH 20.0 %): 0.0766%
- ΔM Desorption ([2]; 1st cycle, RH 30.0 %): 0.1106%
- ΔM Desorption ([2]; 1st cycle, RH 40.0 %): 0.1370%
- ΔM Desorption ([2]; 1st cycle, RH 50.0 %): 0.1624%
- ΔM Hysteresis ([2]; 1st cycle, RH 50.0 %): −0.0006%
- ΔM Sorption ([2]; 1st cycle, RH 50.0 %): 0.1629%
- ΔM Desorption ([2]; 1st cycle, RH 60.0 %): 0.2010%
- ΔM Hysteresis ([2]; 1st cycle, RH 60.0 %): −0.0299%
- ΔM Sorption ([2]; 1st cycle, RH 60.0 %): 0.2309%
- ΔM Desorption ([2]; 1st cycle, RH 70.0 %): 0.2562%
- ΔM Hysteresis ([2]; 1st cycle, RH 70.0 %): −0.0081%
- ΔM Sorption ([2]; 1st cycle, RH 70.0 %): 0.2643%
- ΔM Desorption ([2]; 1st cycle, RH 80.0 %): 0.2988%
- ΔM Hysteresis ([2]; 1st cycle, RH 80.0 %): 0.0150%
- ΔM Sorption ([2]; 1st cycle, RH 80.0 %): 0.2839%
- ΔM Desorption ([2]; 1st cycle, RH 90.0 %): 0.3057%
- ΔM Sorption ([2]; 1st cycle, RH 90.0 %): 0.3057%
- ΔM Desorption ([2]; 2nd cycle, RH 0.0 %): −0.0605%
- ΔM Sorption ([2]; 2nd cycle, RH 0.0 %): 0.0012%
- ΔM Desorption ([2]; 2nd cycle, RH 10.0 %): −0.0253%
- ΔM Hysteresis ([2]; 2nd cycle, RH 10.0 %): −0.0610%
- ΔM Sorption ([2]; 2nd cycle, RH 10.0 %): 0.0357%
- ΔM Desorption ([2]; 2nd cycle, RH 20.0 %): 0.0046%
- ΔM Hysteresis ([2]; 2nd cycle, RH 20.0 %): −0.0576%
- ΔM Sorption ([2]; 2nd cycle, RH 20.0 %): 0.0622%
- ΔM Desorption ([2]; 2nd cycle, RH 30.0 %): 0.0322%
- ΔM Hysteresis ([2]; 2nd cycle, RH 30.0 %): −0.0576%
- ΔM Sorption ([2]; 2nd cycle, RH 30.0 %): 0.0898%
- ΔM Desorption ([2]; 2nd cycle, RH 40.0 %): 0.0605%
- ΔM Hysteresis ([2]; 2nd cycle, RH 40.0 %): −0.0553%
- ΔM Sorption ([2]; 2nd cycle, RH 40.0 %): 0.1157%
- ΔM Desorption ([2]; 2nd cycle, RH 50.0 %): 0.0881%
- ΔM Hysteresis ([2]; 2nd cycle, RH 50.0 %): −0.0530%
- ΔM Sorption ([2]; 2nd cycle, RH 50.0 %): 0.1411%
- ΔM Desorption ([2]; 2nd cycle, RH 60.0 %): 0.1169%
- ΔM Hysteresis ([2]; 2nd cycle, RH 60.0 %): −0.0461%
- ΔM Sorption ([2]; 2nd cycle, RH 60.0 %): 0.1629%
- ΔM Desorption ([2]; 2nd cycle, RH 70.0 %): 0.1480%
- ΔM Hysteresis ([2]; 2nd cycle, RH 70.0 %): −0.0248%
- ΔM Sorption ([2]; 2nd cycle, RH 70.0 %): 0.1727%
- ΔM Desorption ([2]; 2nd cycle, RH 80.0 %): 0.1658%
- ΔM Hysteresis ([2]; 2nd cycle, RH 80.0 %): −0.0052%
- ΔM Sorption ([2]; 2nd cycle, RH 80.0 %): 0.1710%
- ΔM Desorption ([2]; 2nd cycle, RH 90.0 %): 0.1532%
- ΔM Sorption ([2]; 2nd cycle, RH 90.0 %): 0.1532%
- ΔM Sorption ([2]; 3rd cycle, RH 0.0 %): −0.0605%
- ΔM Sorption ([2]; 3rd cycle, RH 10.0 %): −0.0190%
- ΔM Sorption ([2]; 3rd cycle, RH 20.0 %): 0.0104%
- ΔM Sorption ([2]; 3rd cycle, RH 30.0 %): 0.0345%
- ΔM Sorption ([2]; 3rd cycle, RH 40.0 %): 0.0599%
- ΔM Sorption ([2]; 3rd cycle, RH 50.0 %): 0.0829%

Compound: CCCCCCCCCC(=O)O.CN(C)CC1CCCCC1(O)c1cccc(O)c1 (stereo not shown) [decanoate]
- release rate compared to the hydrochloride salt [1]: decreased release rates compared to the hydrochloride salt

Compound: octanoate
- release rate compared to the hydrochloride salt [1]: decreased release rates compared to the hydrochloride salt
